From US4623648A, “1-azaxanthone for use as therapeutic agent as an antipyretic, analgesic, anti-inflammatory and bronchodilator” (priority 1981, dated 1986)

How the values were obtained:
mice [1] = assay: Acetic acid induced writhing in mice; type: in vivo; settings: Mus musculus; oral; 95% confidence limits 2.1-3.4
Protocol: (§1) Sprague-Dawley rats, Swiss mice, California rabbits and mongrel guinea pigs and cats were used. 1-azaxanthone was administered as a suspension in 0.5 % w/v of carboxymethyl-cellulose in distilled water for oral and i.p. administration. When administered i.v. or to the nutrient liquid of the isolated tissues, a solution of the compound in isopropylidenglycerol (15 mg/ml) was used.
Acetic acid induced writhing in mice (according to R. Koster et al., Fedn. Proc. 1959, 18, 412).

rat inflamed paw = assay: Hyperalgesia in rat inflamed paw (Randall and Selitto); type: in vivo; settings: po, per os, read-out: AID2 (dose that increases twice the analgesic threshold of the control animals)
Protocol: as §1
Hyperalgesia in rat inflamed paw (according to L. O. Randall and J. J. Selitto, Arch. Int. Pharmacodyn. 1957, 111, 409).

mice [2] = assay: Hot plate test in mice; type: in vivo; settings: Mus musculus; oral, 1 hour before; plate 57°±0.5° C.; 95% confidence limits 11-39
Protocol: as §1
Hot plate test in mice. An analgesimeter LETICA model 7000 was used, the temperature of the plate being maintained at 57°±0.5° C. The test compound was administered by oral route 1 hour before placing the animals on the plate.

rat paw oedema = assay: Carrageenan rat paw oedema; type: in vivo; settings: po, per os, 95% confidence limits 6.0-37.3
Protocol: as §1
Carrageenan rat paw oedema (according to C. A. Winter et al., Proc. Soc. Exptl. Biol. N.Y. 1962, 111, 544).

abscess = assay: Carrageenan-induced abscess; type: in vivo; settings: 50×2 mg/kg per os
Protocol: as §1
Carrageenan-induced abscess (according to K. F. Benitz and L. M. Hall, Arch. Int. Pharmacodyn. 1963, 144, 185).

[3] = system: guinea pig tracheal chain; assay: Isolated guinea pig tracheal chain; settings: Cavia porcellus, bath nutrient liquid
Protocol: as §1
Isolated guinea pig tracheal chain (according to J. C. Castillo and E. K. DeBeer, J. Pharmacol. Exptl. Ther. 1947, 90, 104). 1-azaxanthone produced maximum relaxation of the tracheal muscle at a concentration of 20 μg/ml in the bath nutrient liquid. The minimun effective dose was about 5 μg/ml.

guinea pig [4] = assay: Inhibition of the bronchoconstrictor response to histamine in guinea pig; type: in vivo; settings: 8 mg/kg i.v., 5 μg histamine
Protocol: as §1
Inhibition of the bronchoconstrictor response to histamine in guinea pig (according to H. Konzett and R. Rossler, Arch. Exptl. Path. Pharmak. 1940, 195, 71). 1-azaxanthone (8 mg/kg i.v.) inhibited the response induced by 5 μg of histamine by 100% at 5 min, 67% at 10 min, 50% at 20 min, and 15% at 30 min after administration.

guinea pig [5] = assay: Inhibition of the bronchoconstrictor response to bradykinin in guinea pig; type: in vivo; settings: 8 mg/kg i.v.; 10 min after 6 μg and 8 min before 12 μg of bradykinin
Protocol: as §1
Inhibition of the bronchoconstrictor response to bradykinin in guinea pig (according to H. Konzett and R. Rossler, ibid.). 1-azaxanthone (8 mg/kg i.v.) produced a 100% inhibition of the response induced by bradykinin when the test compound was administered 10 min after 6 μg and 8 min before 12 μg of bradykinin.

[6] = Acute toxicity in rats and mice (overall ranges); settings: in vivo, depending on species and sex
Protocol: (§2) The acute toxicity of 1-azaxanthone was evaluated in rats and mice. LD50 values ranged between 400-600 mg/kg (i.p. route) and between 600-2000 mg/kg (oral route) depending on species and sex.

Acute toxicity in rats = settings: rat, in vivo
Protocol: as §2

Acute toxicity in mice = settings: mouse, in vivo, ip, female mice
Protocol: as §2

rats [7] = assay: 14 day oral tolerance of gastric and rectal mucosae and liver elimination of sulphobromophthalein; type: in vivo; settings: 200 mg/kg/day oral, 14 consecutive days
rats [8] = assay: Subacute toxicity study in rats (42 days); type: in vivo
rats [9] = assay: Chronic administration to rats (92 days); type: in vivo
rats [10] = assay: Preliminary teratogenesis studies in rats; type: in vivo
cardiocirculatory system = assay: Effect on the cardiocirculatory system; type: in vivo; settings: rats, cats and dogs
[11] = Water solubility (general statement); type: physicochemical
[12] = system: schistosomiasis infections; settings: F. G. Mann, J. A. Reid, J. Chem. Soc. 1952; cited from earlier work

Structure (SMILES): O=c1c2ccccc2oc2ncccc12 [1-azaxanthone]
- ED50 (mice [1]): 2.8 mg/kg
- ED (2-fold analgesic threshold) (rat inflamed paw): 18.4 mg/kg
- ED50 (mice [2]): 21 mg/kg
- ED50 (rat paw oedema): 21.7 mg/kg
- inhibition of dry weight of the abscess (abscess): 48.4%
- inhibition of wet weight of the abscess (abscess): 34.6%
- EC (maximum relaxation) ([3]; read-out: concentration producing maximum relaxation of the tracheal muscle): 20 µg/mL
- minimal effective concentration ([3]; read-out: minimum effective dose (tracheal relaxation)): ~5 µg/mL
- inhibition of response induced by histamine (guinea pig [4]; 5 min after administration): 100%
- inhibition of response induced by histamine (guinea pig [4]; 10 min after administration): 67%
- inhibition of response induced by histamine (guinea pig [4]; 20 min after administration): 50%
- inhibition of response induced by histamine (guinea pig [4]; 30 min after administration): 15%
- inhibition of response induced by bradykinin (guinea pig [5]): 100%
- LD50 ([6]; ip): 400 to 600 mg/kg
- LD50 ([6]; oral): 600 to 2000 mg/kg
- LD50 (Acute toxicity in rats; ip, female rats): 420 mg/kg
- LD50 (Acute toxicity in rats; po, orally, male rats): ~2000 mg/kg
- LD50 (Acute toxicity in mice): 600 mg/kg
- liver elimination of sulphobromophthalein (rats [7]): eliminated sulphobromophthalein well
- tolerance of gastric and rectal mucosae (rats [7]): tolerated the compound well
- reversibility of hepatomegaly (rats [8]; another study, on discontinuing the administration): fully reversible
- hepatomegaly (rats [8]; oral, 42 days): developed a hepatomegaly
- histology of hepatomegaly (rats [8]; oral, 42 days): increased volume of hepatic nucleoles
- drug-related toxic effect (rats [8]; oral, 42 days, up to 200 mg/kg/day): did not show any drug-related toxic effect
- effect on body weight increase and hematological/serum parameters (rats [9]; 25 mg/kg/day oral): without statistically significant effect
- alteration of parameters compared to control group (rats [9]; 100 mg/kg/day oral): some of these parameters were altered
- survival (rats [9]; oral): all animals survived
- weights of the main organs (rats [9]; oral): within normal limits
- teratogenic potential (rats [10]): did not show any clear specific teratogenic potential
- effect on the cardiocirculatory system (cardiocirculatory system): no effect on the cardiocirculatory system
- water solubility [11]: low water solubility
- effect on schistosomiasis infections [12]: did not show any "significant effect on schistosomiasis infections"
